In ChEMBL document CHEMBL4145539, “Phenylpyridine-2-ylguanidines and rigid mimetics as novel inhibitors of TNFα overproduction: Beneficial action in models of neuropathic pain and of acute lung inflammation” (Eur J Med Chem, 2018):
Activity calls are given as the source filed them. The calls are words filed in the database; no cut-off is given here.

Legend:
PBMC [1] = assay: Anti-inflammatory activity in human PBMC assessed as inhibition of LPS-induced IL-1beta production at 10 uM after 24 hrs by ELISA relative to control; type: functional
[2] = Cytotoxicity against human PBMC assessed as cell viability at 10 um after 24 hrs by WST-1 assay relative to control; type: cell-based; details: PBMC (peripheral blood mononuclear cells), read-out: Activity
PBMC [3] = assay: Anti-inflammatory activity in human PBMC assessed as inhibition of LPS-induced TNFalpha production at 10 uM after 24 hrs by ELISA relative to control; type: functional
PBMC [4] = assay: Anti-inflammatory activity in human PBMC assessed as inhibition of LPS-induced IL-1beta production after 24 hrs by ELISA; type: functional, cell-based
PBMC [5] = assay: Anti-inflammatory activity in human PBMC assessed as inhibition of LPS-induced TNFalpha production after 24 hrs by ELISA; type: functional, cell-based
Mus musculus [6] = assay: Anti-inflammatory activity in LPS-induced acute lung inflammation C57BL/6 mouse model assessed as inhibition of neutrophils recruitment in BALF at 5 mg/kg, ip bid administered 1 hr before and 10 hrs after LPS treatment measured 24 hrs post LPS treatment by flow cytometry relative to control; type: functional; details: C57BL/6, ip
Mus musculus [7] = assay: Anti-inflammatory activity in LPS-induced acute lung inflammation C57BL/6 mouse model assessed as inhibition of TNFalpha level in BALF at 5 mg/kg, ip bid administered 1 hr before and 10 hrs after LPS treatment measured 24 hrs post LPS treatment by ELISA relative to control; type: functional; details: C57BL/6, ip
Mus musculus [8] = assay: Antiallodynic activity in C57BL/6J mouse model of sciatic nerve ligation-induced neuropathic pain assessed as increase in paw withdrawal latency time at 1 mg/kg, ip bid for 17 consecutive days starting from 2 to 3 weeks post surgery measured on day 16 during compound dosing by Von Frey test; type: functional, organism-based
Mus musculus [9] = assay: Antiallodynic activity in C57BL/6J mouse model of sciatic nerve ligation-induced neuropathic pain assessed as increase in paw withdrawal latency time at 5 mg/kg, ip bid for 17 consecutive days starting from 2 to 3 weeks post surgery measured on day 11 during compound dosing by Von Frey test; type: functional, organism-based
Mus musculus [10] = assay: Toxicity in C57BL/6 mouse assessed as effect on number of inflammatory cells recovered in BALF at 5 mg/kg, ip bid administered 1 hr before and 10 hrs after LPS treatment measured 24 hrs post LPS treatment by flow cytometry; type: organism-based; details: in vivo
Mus musculus [11] = assay: Toxicity in C57BL/6J mouse model of sciatic nerve ligation-induced neuropathic pain assessed as behavioral changes at 1 to 5 mg/kg, ip bid for 17 consecutive days starting from 2 to 3 weeks post surgery; type: organism-based; details: in vivo
Mus musculus [12] = assay: Anti-inflammatory activity in LPS-induced acute lung inflammation C57BL/6 mouse model assessed as inhibition of lymphocytes recruitment in BALF at 5 mg/kg, ip bid administered 1 hr before and 10 hrs after LPS treatment measured 24 hrs post LPS treatment by flow cytometry relative to control; type: functional; details: C57BL/6, ip
Mus musculus [13] = assay: Toxicity in C57BL/6J mouse model of sciatic nerve ligation-induced neuropathic pain assessed as body weight loss at 1 mg/kg, ip bid for 17 consecutive days starting from 2 to 3 weeks post surgery; type: organism-based; details: in vivo
Mus musculus [14] = assay: Toxicity in C57BL/6J mouse model of sciatic nerve ligation-induced neuropathic pain assessed as body weight loss at 5 mg/kg, ip bid for 17 consecutive days starting from 2 to 3 weeks post surgery relative to control; type: organism-based; details: in vivo
Mus musculus [15] = assay: Antiallodynic activity in C57BL/6J mouse model of sciatic nerve ligation-induced neuropathic pain assessed as increase in paw withdrawal latency time at 1 mg/kg, ip bid for 17 consecutive days starting from 2 to 3 weeks post surgery by Von Frey test; type: functional, organism-based

SMILES | inhibition at 10 µM (PBMC [1]) [%] | viability at 24 h, 10 µM [2] [%] | inhibition at 10 µM (PBMC [3]) [%] | other results
N=C(N)Nc1cccc(-c2cccc(Cl)c2)n1 | 80 | 40 | 74 | –
N=C(N)Nc1ccc(-c2ccccc2)cn1 | -1 | 97 | -9 | –
N=C(N)Nc1ccc(-c2ccc(Cl)cc2)cn1 | 97 | 23 | 72 | –
N=C(N)Nc1cccc(-c2ccccc2)n1 | 3 | 100 | 18 | IC50 (PBMC [4]): > 30 µM; IC50 (PBMC [5]): 18.6 µM
N=C(N)Nc1cccc(-c2ccccc2Cl)n1 | 9 | 74 | 47 | IC50 (PBMC [4]): > 30 µM; IC50 (PBMC [5]): 19.2 µM
NC1=Nc2cc(-c3ccccc3)ccc2CN1 | 93 | 81 | 76 | inhibition in vivo at 5 mg/kg (Mus musculus [6]): 62%; IC50 (PBMC [4]): 3.7 µM; inhibition in vivo at 5 mg/kg (Mus musculus [7]): 49%; Activity (Mus musculus [8]): Active; Activity (Mus musculus [9]): Active; Activity (Mus musculus [10]): Non-Toxic; Activity (Mus musculus [11]): Non-Toxic; IC50 (PBMC [5]): 1 µM; inhibition in vivo at 5 mg/kg (Mus musculus [12]): 63%
N=C(N)Nc1ccc(-c2cccc(Cl)c2)cn1 | 8 | 94 | 52 | IC50 (PBMC [4]): 17.5 µM; IC50 (PBMC [5]): 5.5 µM
COc1ccc(-c2ccc(NC(=N)N)nc2)cc1 | 48 | 34 | 58 | –
COc1ccccc1-c1ccc(NC(=N)N)nc1 | 4 | 78 | 56 | IC50 (PBMC [4]): > 30 µM; IC50 (PBMC [5]): 7.7 µM
COc1ccccc1-c1ccnc(NC(=N)N)c1 | -1 | 99 | 10 | –
COc1ccccc1-c1ccc2c(c1)CNC(N)=N2 | 1 | 126 | 13 | –
N=C(N)Nc1cc(-c2cccc(Cl)c2)ccn1 | 53 | 38 | 64 | –
NC(N)=Nc1cc(-c2ccccc2)ccn1 | – | 72 | – | Activity (Mus musculus [13]): Non-Toxic; Activity (Mus musculus [10]): Non-Toxic; Activity (Mus musculus [14]): 5%
NC(=S)Nc1cc(-c2ccccc2)ccn1 | 1 | 86 | 4 | –
N=C(N)Nc1cc(-c2ccccc2Cl)ccn1 | 23 | 42 | 65 | –
N=C(N)Nc1cccc(-c2ccc(Cl)cc2)n1 | 77 | 35 | 72 | –
N=C(N)Nc1ncccc1-c1ccccc1 | 1 | 108 | 11 | –

SMILES | inhibition at 10 µM (PBMC [1]) [%] | viability at 24 h, 10 µM [2] [%] | inhibition at 10 µM (PBMC [3]) [%] | other results
COc1cccc(-c2ccnc(NC(=N)N)c2)c1 | 29 | 66 | 56 | –
COc1cccc(-c2ccc(NC(=N)N)nc2)c1 | 4 | 116 | 25 | –
COc1ccc(-c2ccnc(NC(=N)N)c2)cc1 | 86 | 34 | 69 | –
N=C(N)Nc1cc(-c2ccc(Cl)cc2)ccn1 | 97 | 24 | 69 | –
N=C(N)Nc1cc(-c2ccc(C(F)(F)F)cc2)ccn1 | 98 | 24 | 71 | –
N=C(N)Nc1cc(-c2ccccc2)ccn1 | 91 | – | 67 | inhibition in vivo at 5 mg/kg (Mus musculus [6]): 39%; IC50 (PBMC [4]): 5.8 µM; Activity (Mus musculus [15]): Active; IC50 (PBMC [5]): 1.2 µM; inhibition in vivo at 5 mg/kg (Mus musculus [12]): 52%
NC1=Nc2cccc(-c3ccccc3)c2CN1 | 0 | 111 | 7 | –
COc1ccc(C2CNC(=O)C2)cc1OC1CCCC1 (centres undefined) [ROLIPRAM] | – | 104 | 79 | IC50 (PBMC [5]): 0.13 µM
COc1ccccc1-c1cccc(NC(=N)N)n1 | 1 | 106 | 7 | –
CNCCC=C1c2ccccc2CCc2ccccc21 | – | – | – | Activity (Mus musculus [15]): inactive; Activity (Mus musculus [9]): Active
NC1=Nc2cc(-c3ccccc3)ccc2CCN1 | -4 | 100 | -7 | –
COc1ccc(-c2cccc(NC(=N)N)n2)cc1 | -6 | 94 | 27 | –
N=C(N)Nc1ccc(-c2ccccc2Cl)cn1 | 96 | 55 | 82 | –
Nc1nc2ccc(-c3ccccc3)cc2[nH]1 | 3 | 114 | 15 | –
COc1cccc(-c2cccc(NC(=N)N)n2)c1 | 2 | 104 | 7 | –
NC1=Nc2ccc(-c3ccccc3)cc2CN1 | – | 90 | 22 | –
